Laboratory results taken from the supplement of paper PMC10307832.

Assays:
Test in all cases: relative viability (nuclei count vs DMSO), 5 days (fraction); higher = more cells survive
[1] = compound: CN1CCC(CNc2ccc3ncc(-c4cccc(OC(F)(F)F)c4)n3n2)CC1 [SGI-1776] + COc1cccc2cc(-c3nc([C@H]4CC[C@H](C(=O)O)CC4)n4ncnc(N)c34)[nH]c12 [OSI-027] (partner 0.5 µM)
In short: (§1)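 Relative viability was taken as the ratio of nuclei in treated wells to nuclei in vehicle wells. Lung cancer cell lines in 1536-well plates received compounds by pin tool one day after seeding, either one drug alone or a fixed anchor-drug dose plus five library-drug doses (not always all listed) in √10 steps. Nuclei were counted on 4× images after 5 days of treatment, and values are medians of duplicate plates.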

[2] = compound: Nc1ccccc1NC(=O)c1ccc(CNC(=O)OCc2cccnc2)cc1 [Entinostat] + C[C@]1(O)C[C@@H](c2nc(-c3ccc4ccc(-c5ccccc5)nc4c3)c3c(N)nccn32)C1 [Linsitinib] (partner 1 µM)
In short: as §1

[3] = compound: C1COCCN1C2=NC(=NC3=C2OC4=C3C=CC=N4)C5=CC(=CC=C5)NC(=O)C6=CN=C(C=C6)N + CC1(C)CCC(c2ccc(Cl)cc2)=C(CN2CCN(c3ccc(C(=O)NS(=O)(=O)c4ccc(N[C@H](CCN5CCOCC5)CSc5ccccc5)c(S(=O)(=O)C(F)(F)F)c4)cc3)CC2)C1 [Navitoclax] (partner 0.5 µM)
In short: as §1

[4] = compound: Nc1ccccc1NC(=O)c1ccc(CNC(=O)OCc2cccnc2)cc1 [Entinostat] + CC(=O)Nc1cccc(-n2c(=O)n(C3CC3)c(=O)c3c(Nc4ccc(I)cc4F)n(C)c(=O)c(C)c32)c1 [Trametinib] (partner 0.02 µM)
In short: as §1

Cell Line | relative viability ([1]; first compound 0.08 µM) | relative viability ([1]; first compound 0.8 µM) | relative viability ([1]; first compound 2.53 µM) | relative viability ([1]; first compound 8 µM) | relative viability ([2]; first compound 0.02 µM) | relative viability ([2]; first compound 0.06325 µM) | relative viability ([2]; first compound 0.2 µM) | relative viability ([2]; first compound 0.6325 µM) | relative viability ([2]; first compound 2 µM) | relative viability ([3]; first compound 0.02 µM) | relative viability ([3]; first compound 0.06325 µM) | relative viability ([3]; first compound 0.2 µM) | relative viability ([3]; first compound 0.6325 µM) | relative viability ([3]; first compound 2 µM) | relative viability ([4]; first compound 0.02 µM) | relative viability ([4]; first compound 0.06325 µM) | relative viability ([4]; first compound 0.2 µM) | relative viability ([4]; first compound 0.6325 µM) | relative viability ([4]; first compound 2 µM)
NCI-H1563 | 0.749 | 0.8 | 0.674 | 0.614 | 1.14 | 1.2 | 1.09 | 0.897 | 0.769 |  |  |  |  |  |  |  |  |  | 
NCI-H1703 |  |  |  |  | 0.883 | 0.805 | 0.857 | 0.919 | 0.582 | 0.874 | 1.03 | 0.983 | 0.646 | 0.416 |  |  |  |  | 
EBC-1 |  |  |  |  | 0.934 | 0.94 | 0.811 | 0.22 | 0.122 | 0.397 | 0.368 | 0.32 | 0.377 | 0.234 |  |  |  |  | 
ABC-1 | 0.401 | 0.552 | 0.472 | 0.407 | 0.686 | 0.992 | 0.807 | 0.481 | 0.506 |  |  |  |  |  |  |  |  |  | 
NCI-H1650 | 0.627 | 0.565 | 0.417 | 0.197 |  |  |  |  |  | 1.27 | 1.34 | 1.06 | 1.32 | 0.539 | 0.594 | 0.585 | 0.507 | 0.372 | 0.376
NCI-H1648 | 0.233 | 0.273 | 0.249 | 0.238 |  |  |  |  |  |  |  |  |  |  | 0.507 | 0.682 | 0.436 | 0.653 | 0.472
A549 |  |  |  |  | 0.595 | 0.646 | 0.627 | 0.648 | 0.602 | 1.37 | 1.22 | 1.13 | 1.18 | 0.668 |  |  |  |  | 
NCI-H1299 |  |  |  |  | 0.962 | 0.914 | 0.95 | 0.754 | 0.601 | 1.04 | 1.05 | 1.01 | 1.07 | 0.976 |  |  |  |  | 
NCI-H1623 | 0.459 | 0.416 | 0.502 | 0.427 |  |  |  |  |  |  |  |  |  |  |  |  |  |  | 
NCI-H2170 | 0.741 | 0.671 | 0.666 | 0.67 |  |  |  |  |  | 0.674 | 0.605 | 0.673 | 0.525 | 0.413 | 0.972 | 0.888 | 0.752 | 0.579 | 0.402
NCI-H522 | 0.713 | 0.811 | 0.749 | 0.569 |  |  |  |  |  |  |  |  |  |  | 0.812 | 0.966 | 0.799 | 0.844 | 0.841
Calu-6 |  |  |  |  | 0.859 | 0.961 | 0.852 | 0.739 | 0.502 | 1.03 | 1.01 | 0.846 | 0.809 | 0.384 |  |  |  |  | 
ChaGo-K-1 | 0.619 | 0.61 | 0.39 | 0.413 |  |  |  |  |  | 0.96 | 0.863 | 0.619 | 1.01 | 0.839 | 0.948 | 0.933 | 0.897 | 0.785 | 0.64
